{"source": "patent US20070049515A1", "about": "“Therapeutic agent for diabetes containing insulin resistance improving agent” (SANKYO COMPANY, LIMITED, priority 2005, published 2007)", "assay_type_in_all_cases": "in vivo, rat", "key": {"[1]": {"tested_on": "Zucker diabetic fatty rats", "assay": "Intermittent administration of compound A (Example 2): blood glucose level, red blood cell count, heart weight", "conditions": "for blood glucose level: FIG. 4; for red blood cell count: FIG. 5; for heart weight: FIG. 6", "source_text": "Zucker diabetic fatty rats (9-week-old, from Charles River Laboratories Japan, Inc.) were used in the experiment. The rats were divided into 3 groups so that body weight, blood glucose level, and red blood cell count may each be uniform among the groups, and each of these groups served as a control group, an intermittent treatment group, or a continuous treatment group (n=4 to 5). Food (FR2, from Funabashi Nojo) and water were given ad libitum during the testing period. A 0.5% carboxymethyl cellulose (CMC) solution only was administered to the control group, and a CMC suspension of compound A was forcibly orally administered to the intermittent treatment group and continuous treatment group according to the regimen described below. For the intermittent treatment group, compound A was repeatedly given in a dose of 1 mg/kg once a day for one week before decreasing the administration thereof to twice a week to administer it for a further two weeks (dosing days: days 0 to 7, 10, 14, and 17). In this respect, the CMC solution was given on the days when compound A was not administered. For the continuous treatment group, 1 mg/kg was repeatedly administered once a day for three weeks. Blood was collected at days 0, 2, 5, 7, 9, 12, 14, 16, 19, and 21 when the start date of dosing was shown as day 0, using a capillary tube treated with heparin, and blood glucose level and blood cell parameters were determined using an autoanalyzer (blood glucose level: Glucoroder GX-T from A&T Corporation, blood cell parameters: KX-21N from Sysmex Corporation)"}, "[2]": {"tested_on": "Zucker diabetic fatty rats", "assay": "Administration of the effective and low doses of compound A in combination (Example 1(a)): blood glucose level, red blood cell count, heart weight", "conditions": "for red blood cell count: FIG. 2; for heart weight: FIG. 3; for blood glucose level (mean) after the decrease to the low dose: oral once a day, from the 14th day on", "source_text": "Zucker diabetic fatty rats (9-week-old, from Charles River Laboratories Japan, Inc.) were used in the experiment. The rats were divided into 4 groups of 5 individuals each so that body weight, blood glucose level, and red blood cell count may each be uniform among the groups, and each of these groups served as a low-dose treatment group (Ia), a low-dose treatment group (Ib), a continuous treatment group, or a control group. Food (FR2, from Funabashi Nojo) and water were given ad libitum during the testing period. A 0.5% carboxymethyl cellulose (CMC) solution only was administered to the control group, and a CMC suspension of compound A was orally administered to all of the other groups, once a day in doses described below. For the low-dose treatment group (Ia), it was administered at 3 mg/kg for 2 weeks and then at a decreased dose of 0.03 mg/kg for a further 3 weeks. For the low-dose treatment group (Ib), it was administered at 3 mg/kg for 2 weeks and then at a decreased dose of 0.3 mg/kg for a further 3 weeks. For the continuous treatment group, 3 mg/kg was administered for 5 weeks. Blood was collected every 7 days from the start of administration using a capillary tube treated with heparin and EDTA, and blood glucose level and blood cell parameters were determined using an autoanalyzer (blood glucose level: Glucoroder GX-T from A&T Corporation), blood cell parameters: KX-21N from Sysmex Corporation)."}, "[3]": {"tested_on": "Zucker diabetic fatty rats", "assay": "Cycle of one week full coverage followed by four weeks of reduced dosage (Example 1(b))", "conditions": "one week full coverage (3 mg/kg) followed by four weeks of reduced dosage (0.3 mg/kg)"}, "[4]": {"conditions": "continuous treatment group: 1 mg/kg orally once a day for three weeks"}, "[5]": {"conditions": "intermittent treatment group: 1 mg/kg once a day for one week, then twice a week for two weeks"}, "[6]": {"conditions": "continuous treatment group: 3 mg/kg orally once a day for 5 weeks"}, "[7]": {"conditions": "low-dose treatment group (Ia): 3 mg/kg for 2 weeks, then 0.03 mg/kg for 3 weeks"}, "[8]": {"conditions": "low-dose treatment group (Ib): 3 mg/kg for 2 weeks, then 0.3 mg/kg for 3 weeks"}}}
{"smiles": "COc1ccc2nc(COc3ccc(CC4SC(=O)NC4=O)cc3)n(C)c2c1.Cl", "note": "(stereo not shown) [compound A, 5-[4-(6-methoxy-1-methyl-1H-benzimidazol-2-ylmethoxy)benzyl]thiazolidin-2,4-dione hydrochloride]", "values": [{"measurement": "blood glucose level", "setting": "[1]; [4]", "result": "lowered to a normal range"}, {"measurement": "red blood cell count", "setting": "[1]; [4]", "result": "hemodilution (a decrease in red blood cell count)"}, {"measurement": "heart weight", "setting": "[1]; [4]", "result": "marked increase in heart weight"}, {"measurement": "blood glucose level", "setting": "[1]; [5]", "result": "nearly the same level as that in the continuous treatment group"}, {"measurement": "red blood cell count", "setting": "[1]; [5]", "result": "an increase in red blood cell count"}, {"measurement": "heart weight", "setting": "[1]; [5]", "result": "decreased in value compared to that in the continuous treatment group"}, {"measurement": "blood glucose level", "setting": "[2]; continuous treatment group: 3 mg/kg orally once a day for 5 weeks, FIG. 1", "result": "lowered to a normal value"}, {"measurement": "red blood cell count", "setting": "[2]; [6]", "result": "hemodilution (a decrease in red blood count)"}, {"measurement": "heart weight", "setting": "[2]; [6]", "result": "marked increase in heart weight"}, {"measurement": "blood glucose level (mean) after the decrease to the low dose", "setting": "[2]; low-dose treatment group (Ia): 3 mg/kg for 2 weeks, then 0.03 mg/kg for 3 weeks, FIG. 1", "result": "≤ 300", "unit": "mg/dL"}, {"measurement": "red blood cell count", "setting": "[2]; [7]", "result": "recovered nearly to control level"}, {"measurement": "heart weight", "setting": "[2]; [7]", "result": "clearly decreased values compared to that in the continuous treatment group"}, {"measurement": "blood glucose level (mean) after the decrease to the low dose", "setting": "[2]; low-dose treatment group (Ib): 3 mg/kg for 2 weeks, then 0.3 mg/kg for 3 weeks, FIG. 1", "result": "≤ 300", "unit": "mg/dL"}, {"measurement": "red blood cell count", "setting": "[2]; [8]", "result": "rapidly recovered in dose-dependent manner"}, {"measurement": "heart weight", "setting": "[2]; [8]", "result": "clearly decreased values compared to that in the continuous treatment group"}, {"measurement": "results (blood glucose level, red blood cell count, heart weight) compared with Example 1(a)", "setting": "[3]", "result": "Almost the same results to those described above"}]}
